Measurements taken from US20120135989A1, “AZAINDOLE DERIVATIVE” (CRYSTALGENOMICS, INC., priority 2010, published 2012).

Each compound was assayed against T1, human Cdc7/human ASK conjugated protein (Homo sapiens, UniProt O00311) (assay: Cdc7 protein kinase inhibitory action (Cdc7-ASK kinase activity, 32P-labeled MCM2)). Conditions: substrate mouse MCM2-4(his)-6-7(his) conjugated protein, 0.1 mM ATP, 30° C. for 45 minutes; read-out: Activity (uM) ELISA (IC50).
T1 construct: purchased CARNA BIOSCIENCES
T1 sequence (O00311 whole entry): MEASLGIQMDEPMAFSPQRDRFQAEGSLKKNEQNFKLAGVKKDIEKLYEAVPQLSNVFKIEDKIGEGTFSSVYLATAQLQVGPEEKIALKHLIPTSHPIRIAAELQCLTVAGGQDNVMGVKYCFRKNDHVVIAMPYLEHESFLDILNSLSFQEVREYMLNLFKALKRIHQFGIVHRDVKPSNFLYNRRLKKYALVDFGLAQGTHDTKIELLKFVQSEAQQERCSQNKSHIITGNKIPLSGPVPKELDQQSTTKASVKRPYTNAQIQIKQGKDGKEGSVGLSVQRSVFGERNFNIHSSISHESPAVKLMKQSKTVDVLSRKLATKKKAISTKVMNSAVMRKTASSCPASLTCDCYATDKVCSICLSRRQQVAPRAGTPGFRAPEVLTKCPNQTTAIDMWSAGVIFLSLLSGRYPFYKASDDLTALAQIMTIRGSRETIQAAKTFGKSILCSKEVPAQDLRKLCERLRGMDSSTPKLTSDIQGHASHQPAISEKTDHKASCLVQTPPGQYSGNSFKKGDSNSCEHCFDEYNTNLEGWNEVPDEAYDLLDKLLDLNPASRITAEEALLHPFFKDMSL
T1 sequence (Q9UBU7 whole entry partner): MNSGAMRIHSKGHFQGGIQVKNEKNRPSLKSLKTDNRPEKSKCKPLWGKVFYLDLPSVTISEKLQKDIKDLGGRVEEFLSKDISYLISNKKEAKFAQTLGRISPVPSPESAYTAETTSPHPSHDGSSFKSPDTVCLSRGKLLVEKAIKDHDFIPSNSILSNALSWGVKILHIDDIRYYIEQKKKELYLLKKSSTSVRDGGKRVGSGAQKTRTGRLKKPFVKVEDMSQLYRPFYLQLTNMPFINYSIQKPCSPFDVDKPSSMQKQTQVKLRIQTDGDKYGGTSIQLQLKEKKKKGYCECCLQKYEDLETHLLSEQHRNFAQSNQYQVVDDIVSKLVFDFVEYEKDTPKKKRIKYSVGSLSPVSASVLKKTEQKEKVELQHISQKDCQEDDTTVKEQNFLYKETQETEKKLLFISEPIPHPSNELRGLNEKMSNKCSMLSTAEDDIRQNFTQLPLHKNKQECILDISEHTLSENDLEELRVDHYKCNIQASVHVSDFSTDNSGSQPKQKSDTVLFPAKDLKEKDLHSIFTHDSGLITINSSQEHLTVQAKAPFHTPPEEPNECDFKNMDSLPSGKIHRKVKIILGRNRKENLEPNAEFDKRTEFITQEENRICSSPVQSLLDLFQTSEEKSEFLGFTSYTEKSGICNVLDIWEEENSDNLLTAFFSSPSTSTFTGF
Format: biochemical
Procedure: Cdc7 protein kinase inhibitory action of the (di)azaindole derivatives shown in Table 4 was evaluated according to the following operations.
As a substrate for evaluating the enzymatic activity, mouse MCM2-4(his)-6-7 (his) conjugated protein was synthesized. First, the following genes were cloned into a pAcUW31 vector (Pharmingen).
Mouse MCM2 (Genbank/EMBL No. D86725);
N-His-mouse MCM4 (Genbank/EMBL No. D26089, a His6 tag was added to an N-terminal);
Mouse MCM6 (Genbank/EMBL No. D86726), and
N-His-mouse MCM7 (Genbank/EMBL No. D26091, a His6 tag was added to an N-terminal).
The Mouse MCM2 gene and the N-His-mouse MCM7 gene were inserted into the BamHI site and the EcoRI site of the pAcUW31 vector (Mom2-7 Vector), respectively. The mouse MCM6 gene and the N-His-mouse MCM4 gene were inserted into the BamHI site and the EcoRI site of the pAcUW31 vector (MGm-4-6 Vector), respectively. Then, in order to produce a recombinant mouse MCM2-7 (his) and mouse MCM4 (his)-6 Baculovirus, BaculoGold AoNPV Baculovirus DNA (BD/Pharmingen) and an Mcm2-7 Vector or an Mcm-4-6 Vector were cotransfected to SD insect cells. The obtained Mcm2-7 and Mom-4-6 virus were coinfected to Hi5 insect cells. Thereby, a mouse MCM2-4 (his)-6-7 (his) conjugated protein was obtained. Purified mouse MCM2-4 (his)-6-7 (his) conjugated protein (0.5 μg) was used as a substrate.
The substrate (mouse MCM2-4(his)-6-7(his) conjugated protein) (0.5 μg) and kinase enzyme (human Cdc7/human ASK conjugated protein, CARNA BIOSCIENCES) (0.1 μg) were mixed in a microtube. A kinase reaction buffer containing 0.1 μL of γ-^32P ATP (Perkin Elmer) was added as a tracer into the same microtube. The composition of the kinase buffer includes the followings.
40 mM HEPES-KOH buffer pH 7.6,
Furthermore, 0.5 μL of each of the test compounds ((di)azaindole derivatives 10 μM, 100 μM, and 1000 μM, respectively) was added and reacted at 30° C. for 45 minutes. After the reaction, the substrate was separated by SDS-PAGE method, and protein was stained by the silver staining method (2D-silver staining reagent H “Daiichi,” Daiichi Pure Chemicals Co., Ltd.).
The radioactivity of ^32P-labeled MCM2 protein was detected by autoradiography, and the radioactivity of the band of MCM2 protein was measured by a liquid scintillation counter (LSC-6100, ALOKA). As to the Cdc7-ASK kinase activity, the radioactivity at the time when the each of the test compounds was added was calculated in percent when the radioactivity at the time when DMSO (0.5 μL) was added instead of the test compound (0.5 μL) that had been added immediately before the reaction was made to be 100%. Based on the obtained results, IC 50 value of each test compound was calculated. IC50 with respect to Cdc7-ASK kinase of the main (di)azaindole derivatives shown in Table 5 was about 0.001 μM to 0.008 μM.
`CN(C)CCOc1ccc(/N=C2/NC(=O)/C(=C/c3c[nH]c4ncccc34)S2)c(C(F)(F)F)c1` [Compound 13, (2Z,5Z)-2-{4-(2-dimethylamino)ethoxy-2-trifluoromethylphenyl}azamethylene-5-(1H-pyrrolo[2,3-b]pyridin-3-yl)methylene-1,3-thiazolidin-4-one] showed an IC50 of 0.003 µM.
Compound `CN1CCC(Oc2ccc(/N=C3/NC(=O)/C(=C/c4c[nH]c5ncncc45)S3)c(Cl)c2)CC1` [Compound 21, (2Z,5Z)-2-{2-chloro-4-(1-methyl-piperidin-4-yl)oxyphenyl}azamethylene-5-(7H-pyrrolo[2,3-d]pyrimidin-5-yl)methylene-1,3-thiazolidin-4-one] has an IC50 of 0.003 µM.
Compound `Cc1cc(OCCN(C)C)ccc1/N=C1/NC(=O)/C(=C/c2c[nH]c3ncccc23)S1` [Compound 5, (2Z,5Z)-2-{4-(2-dimethylamino)ethoxy-2-methylphenyl}azamethylene-5-(1H-pyrrolo[2,3-b]pyridin-3-yl)methylene-1,3-thiazolidin-4-one] has an IC50 of 0.0019 µM.
With `O=C1N/C(=N/c2ccc(C(=O)O)cc2)S/C1=C\c1c[nH]c2ncccc12` [Compound 4, (2Z,5Z)-2-(4-carboxyphenyl)azamethylene-5-(1H-pyrrolo[2,3-b]pyridin-3-yl)methylene-1,3-thiazolidin-4-one] the IC50 was 0.018 µM.
With `Cc1cc(OCCN(C)C)ccc1/N=C1/NC(=O)/C(=C/c2c[nH]c3ncncc23)S1` [Compound 11, (2Z,5Z)-2-{4-(2-dimethylamino)ethoxy-2-methylphenyl}azamethylene-5-(7H-pyrrolo[2,3-d]pyrimidin-5-yl)methylene-1,3-thiazolidin-4-one] the IC50 was 0.005 µM.
For `CN1CCC(Oc2ccc(/N=C3/NC(=O)/C(=C/c4c[nH]c5ncncc45)S3)c(Cl)c2)C1` (centres unmarked) [Compound 18, (2Z,5Z)2-{2-chloro-4-(1-methylpyrrolidin-3-yl)oxyphenyl}azamethylene-5-(7H-pyrrolo[2,3-d]pyrimidin-5-yl)methylene-1,3-thiazolidin-4-one], the IC50 was 0.002 µM.
`CN(C)CCOc1ccc(/N=C2/NC(=O)/C(=C/c3c[nH]c4ncccc34)S2)c(Cl)c1` [Compound 10, (2Z,5Z)-2-{2-chloro-4-(2-dimethylamino)ethoxyphenyl}azamethylene-5-(1H-pyrrolo[2,3-b]pyridin-3-yl)methylene-1,3-thiazolidin-4-one] gave an IC50 of 0.002 µM.
With `Cc1cc(OC2CCN(C)C2)ccc1/N=C1/NC(=O)/C(=C/c2c[nH]c3ncncc23)S1` (centres unmarked) [Compound 15, (2Z,5Z)-2-{4-(1-methylpyrrolidin-3-yl)oxy-2-methylphenyl}azamethylene-5-(7H-pyrrolo[2,3-d]pyrimidin-5-yl)methylene-1,3-thiazolidin-4-one] the IC50 was 0.008 µM.
`CN1CCC(Oc2ccc(/N=C3/NC(=O)/C(=C/c4c[nH]c5ncccc45)S3)c(C(F)(F)F)c2)C1` (centres unmarked) [Compound 14, (2Z,5Z)-2-{4-(1-methylpyrrolidin-3-yl)oxy-2-trifluoromethylphenyl}azamethylene-5-(1H-pyrrolo[2,3-b]pyridin-3-yl)methylene-1,3-thiazolidin-4-one] gave an IC50 of 0.002 µM.
`Cc1cc(OC2CCN(C)CC2)ccc1/N=C1/NC(=O)/C(=C/c2c[nH]c3ncncc23)S1` [Compound 16, (2Z,5Z)-2-{4-(1-methyl-piperidin-4-yl)oxy-2-methylphenyl}azamethylene-5-(7H-pyrrolo[2,3-d]pyrimidin-5-yl)methylene-1,3-thiazolidin-4-one] was tested, and the IC50 was 0.006 µM.
With `CN1CCC(Oc2ccc(/N=C3/NC(=O)/C(=C/c4c[nH]c5ncccc45)S3)c(C(F)(F)F)c2)CC1` [Compound 23, (2Z,5Z)-2-{4-(1-methyl-piperidin-4-yl)oxy-2-trifluoromethylphenyl}azamethylene-5-(1H-pyrrolo[2,3-b]pyridm-3-yl)methylene-1,3-thiazolidin-4-one] the IC50 was 0.003 µM.
With `Cc1cc(OC2CCN(C)C2)ccc1/N=C1/NC(=O)/C(=C/c2c[nH]c3ncccc23)S1` (centres unmarked) [Compound 6, (2Z,5Z)-2-{4-(1-methylpyrrolidin-3-yl)oxy-2-methylphenyl}azamethylene-5-(1H-pyrrolo[2,3-b]pyridin-3-yl)methylene-1,3-thiazolidin-4-one] the IC50 was 0.003 µM.
`CN1CCC(Oc2ccc(/N=C3/NC(=O)/C(=C/c4c[nH]c5ncccc45)S3)c(Cl)c2)C1` (centres unmarked) [Compound 12, (2Z,5Z)-2-{2-chloro-4-(1-methylpyrrolidin-3-yl)oxyphenyl}azamethylene-5-(1H-pyrrolo[2,3-b]pyridin-3-yl)methylene-1,3-thiazolidin-4-one] gave an IC50 of 0.001 µM.
Compound `Cc1cc(O)ccc1/N=C1/NC(=O)/C(=C/c2c[nH]c3ncccc23)S1` [Compound 3, (2Z,5Z)-2-(4-hydroxy-2-methylphenyl)azamethylene-5-(1H-pyrrolo[2,3-b]pyridin-3-yl)methylene-1,3-thiazolidin-4-one] has an IC50 of 0.0014 µM.
Compound `CN(C)CCOc1ccc(/N=C2/NC(=O)/C(=C/c3c[nH]c4ncncc34)S2)c(C(F)(F)F)c1` [Compound 19, (2Z,5Z)-2-{4-(2-dimethylamino)ethoxy-2-trifluoromethylphenyl}azamethylene-5-(7H-pyrrolo[2,3-d]pyrimidin-5-yl)methylene-1,3-thiazolidin-4-one] has an IC50 of 0.006 µM.
With `Cc1cc(OCCN2CCN(C)CC2)ccc1/N=C1/NC(=O)/C(=C/c2c[nH]c3ncccc23)S1` [Compound 7, (2Z,5Z)-2-[4-{2-(4-methylpiperazin-1-yl)}ethoxy-2-methylphenyl]azamethylene-5-(1H-pyrrolo[2,3-b]pyridin-3-yl)methylene-1,3-thiazolidin-4-one] the IC50 was 0.0021 µM.
Compound `CN(C)CCOc1ccc(/N=C2/NC(=O)/C(=C/c3c[nH]c4ncncc34)S2)c(Cl)c1` [Compound 17, (2Z,5Z)-2-{2-chloro-4-(2-dimethylamino)ethoxyphenyl}azamethylene-5-(7H-pyrrolo[2,3-d]pyrimidin-5-yl)methylene-1,3-thiazolidin-4-one] has an IC50 of 0.002 µM.
`CN1CCC(Oc2ccc(/N=C3/NC(=O)/C(=C/c4c[nH]c5ncccc45)S3)c(Cl)c2)CC1` [Compound 22, (2Z,5Z)-2-{2-chloro-4-(1-methyl-piperidin-4-yl)oxyphenyl}azamethylene-5-(1H-pyrrolo[2,3-b]pyridin-3-yl)methylene-1,3-thiazolidin-4-one] gave an IC50 of 0.001 µM.
`COc1ccc(/N=C2/NC(=O)/C(=C/c3c[nH]c4ncccc34)S2)c(C)c1` [Compound 1, (2Z,5Z)-2-(4-methoxy-2-methylphenyl)azamethylene-5-(1H-pyrrolo[2,3-b]pyridin-3-yl)methylene-1,3-thiazolidin-4-one] showed an IC50 of 0.0012 µM.
With `CN1CCC(Oc2ccc(/N=C3/NC(=O)/C(=C/c4c[nH]c5ncncc45)S3)c(C(F)(F)F)c2)C1` (centres unmarked) [Compound 20, (2Z,5Z)-2-{4-(1-methylpyrrolidin-3-yl)oxy-2-trifluoromethylphenyl}azamethylene-5-(7H-pyrrolo[2,3-d]pyrimidin-5-yl)methylene-1,3-thiazolidin-4-one] the IC50 was 0.007 µM.
With `Cc1ccc(/N=C2/NC(=O)/C(=C/c3c[nH]c4ncccc34)S2)c(C)c1` [Compound 2, (2Z,5Z)-2-(2,4-dimethylphenyl)azamethylene-5-(1H-pyrrolo[2,3-b]pyridin-3-yl)methylene-1,3-thiazolidin-4-one] the IC50 was 0.001 µM.

Biological target: T1, human Cdc7/human ASK conjugated protein
Assay: as above
Format: biochemical
Conditions: substrate mouse MCM2-4(his)-6-7(his) conjugated protein, 0.1 mM ATP, 30° C. for 45 minutes; read-out: Activity (uM) ELISA (IC50)
Remark: another data set of the same source
For `Cc1cc(OCCN2CCOCC2)ccc1/N=C1/NC(=O)/C(=C/c2c[nH]c3ncccc23)S1` [Compound 9, (2Z,5Z)-2-{4-(2-morpholino)ethoxy-2-metlhylphenyl}azamethylene-5-(1H-pyrrolo[2,3-b]pyridin-3-yl)methylene-1,3-thiazolidin-4-one], the IC50 was 0.0017 µM.
With “(2Z,5Z)-2-{4-(1-methyl-piperidin-4-yl)oxy-2-methylphenyl}azamethylene-5-(1H-pyrrolo[2,3-b]pyridin-3-yl)methylene-1,3-thiazolidin-4-one [Compound 8]” the IC50 was 0.0011 µM.
